Data on 8 compounds can be found in patent US20100048544A1, “PYRROLO (3, 2, 1-IJ) QUINOLINE-4-ONE-DERIVATIVES FOR TREATING TUBERCULOSIS” (priority 2007, published 2010).

One assay deals with Mycobacterium tuberculosis H37Rv. Description: Mycobacterium tuberculosis H37Rv inhibition assay (MIC, microtiter plate, alamar blue). It is filed as cell-based. The conditions noted are these: ATCC 25618 / H37Rv, H37Rv strain (ATCC25618), Middlebrook 7H9, 37° C. six days, alamar blue fluorescence after 48 hours, read-out: MIC value.
With `O=c1ccc2ccc(F)c3c2n1CC3CN1CCC(NCc2cc3c(cn2)OCCO3)CC1` (centres unmarked) [Example 2, 1-({4-[(2,3-Dihydro[1,4]dioxino[2,3-c]pyridin-7-ylmethyl)amino]-1-piperidinyl}methyl)-9-fluoro-1,2-dihydro-4H-pyrrolo[3,2,1-ij]quinolin-4-one], the MIC is not above 4 µg/mL. Still for that read-out and setting: as for `O=c1ccc2ccc(F)c3c2n1CC3(O)CN1CCC(NCc2cc3c(nn2)OCCS3)CC1` (centres unmarked) [Example 29, 1-({4-[(6,7-Dihydro[1,4]oxathiino[2,3-c]pyridazin-3-ylmethyl)amino]-1-piperidinyl}methyl)-9-fluoro-1-hydroxy-1,2-dihydro-4H-pyrrolo[3,2,1-ij]quinolin-4-one], the figure is not above 4 µg/mL; as for `O=C1COc2cc(Cl)c(CNC[C@H]3CCN(CC4Cn5c(=O)ccc6ccc(F)c4c65)C3)nc2N1` (stereo partly drawn) [Example 33, 1-{[(3R)-3-({[(7-Chloro-3-oxo-3,4-dihydro-2H-pyrido [3,2-b][1,4]oxazin-6-yl)methyl]amino}methyl)-1-pyrrolidinyl]methyl}-9-fluoro-1,2-dihydro-4H-pyrrolo[3,2,1-ij]quinolin-4-one], not above 4 µg/mL; as for `O=C1COc2ccc(CNC[C@H]3CCN(CC4Cn5c(=O)ccc6ccc(F)c4c65)C3)nc2N1` (stereo partly drawn) [Example 35, 9-Fluoro-1-{[(3R)-3-({[(3-oxo-3,4-dihydro-2H-pyrido[3,2-b][1,4]oxazin-6-yl)methyl]amino}methyl)-1-pyrrolidinyl]methyl}-1,2-dihydro-4H-pyrrolo[3,2,1-ij]quinolin-4-one], not above 4 µg/mL. The same measure, in the same setting: with `O=c1ccc2ccc(F)c3c2n1CC3CN1CCC(NCc2ccc3c(c2)C(O)CCC3)CC1` (centres unmarked) [Example 75, 9-fluoro-1-[(4-{[(8-hydroxy-5,6,7,8-tetrahydro-2-naphthalenyl)methyl]amino}-1-piperidinyl)methyl]-1,2-dihydro-4H-pyrrolo[3,2,1-ij]quinolin-4-one] the figure was not above 4 µg/mL.

Still in this assay, the particulars now being: ATCC 25618 / H37Rv, read-out: MIC value, H37Rv strain (ATCC25618), Middlebrook 7H9, 37° C. six days, alamar blue fluorescence after 48 hours.
`O=c1ccc2ccc(F)c3c2n1CC3CN1CC[C@H](NCc2cc3c(cn2)OCC3)[C@H](O)C1` (stereo partly drawn) [Example 8, 1-({(3R,4S)-4-[(2,3-Dihydrofuro[2,3-c]pyridin-5-ylmethyl)amino]-3-hydroxy-1-piperidinyl}methyl)-9-fluoro-1,2-dihydro-4H-pyrrolo [3,2,1-ij]quinolin-4-one]: the MIC is not above 4 µg/mL. On the same count and under the same terms, as for `O=c1ccc2ccc(F)c3c2n1CC3CN1CCC(NCc2cnc3c(c2)OCCO3)CC1` (centres unmarked) [Example 22, 1-({4-[(2,3-dihydro[1,4]dioxino[2,3-b]pyridin-7-ylmethyl)amino]-1-piperidinyl}methyl)-9-fluoro-1,2-dihydro-4H-pyrrolo[3,2,1-ij]quinolin-4-one], the figure is not above 4 µg/mL; as for `O=c1ccc2ccc(F)c3c2n1C[C@H]3CN1CCC(NCc2ccc3c(c2F)OCCO3)CC1` [Example 80, (1R)-9-fluoro-1-[(4-{[(5-fluoro-2,3-dihydro-1,4-benzodioxin-6-yl)methyl]amino}-1-piperidinyl)methyl]-1,2-dihydro-4H-pyrrolo[3,2,1-ij]quinolin-4-one], not above 4 µg/mL.
